Reference: the NIST ThermoML archive (doi:10.1016/j.fluid.2016.08.014)
± gives the expanded uncertainty stated by the source.

Assays:
[1] = refractive index (Na D-line) (dimensionless); settings: 101.33 kPa, Liquid, Standard Abbe refractometry
[2] = Liquid, Vibrating tube method

**Q.** With NCCN [ethane-1,2-diamine] as the molecule, how does the refractive index ([1]; 293.15 K) read?
**A.** 1.45676 ± 0.00033

**Q.** And the refractive index ([1]; 298.15 K)?
**A.** 1.45453 ± 0.00033

**Q.** And the mass density ([2]; 293.15 K, 200 kPa)?
**A.** 898 ± 1 kg/m3

**Q.** What about the mass density ([2]; 293.15 K, 2500 kPa) of the same molecule?
**A.** 899 ± 1 kg/m3

**Q.** And the mass density ([2]; 293.15 K, 5100 kPa)?
**A.** 900 ± 1 kg/m3

**Q.** What about the mass density ([2]; 293.15 K, 10000 kPa) of the same molecule?
**A.** 903 ± 1 kg/m3

**Q.** What about the mass density ([2]; 293.15 K, 15400 kPa) of the same molecule?
**A.** 905 ± 1 kg/m3

**Q.** What about the mass density ([2]; 293.15 K, 19800 kPa) of the same molecule?
**A.** 907 ± 1 kg/m3

**Q.** What about the mass density ([2]; 293.15 K, 25100 kPa) of the same molecule?
**A.** 909 ± 1 kg/m3

**Q.** What about the mass density ([2]; 293.15 K, 30200 kPa) of the same molecule?
**A.** 911 ± 1 kg/m3

**Q.** What about the mass density ([2]; 298.15 K, 101.33 kPa) of the same molecule?
**A.** 895.323 ± 4 kg/m3

**Q.** And the mass density ([2]; 303.15 K, 300 kPa)?
**A.** 890 ± 1 kg/m3

**Q.** What about the mass density ([2]; 303.15 K, 2500 kPa) of the same molecule?
**A.** 891 ± 1 kg/m3

**Q.** And the mass density ([2]; 303.15 K, 5000 kPa)?
**A.** 892 ± 1 kg/m3

**Q.** What about the mass density ([2]; 303.15 K, 10200 kPa) of the same molecule?
**A.** 893 ± 1 kg/m3

**Q.** And the mass density ([2]; 303.15 K, 15000 kPa)?
**A.** 896 ± 1 kg/m3

**Q.** And the mass density ([2]; 303.15 K, 20500 kPa)?
**A.** 898 ± 1 kg/m3

**Q.** And the mass density ([2]; 303.15 K, 25100 kPa)?
**A.** 900 ± 1 kg/m3

**Q.** What about the mass density ([2]; 303.15 K, 30100 kPa) of the same molecule?
**A.** 902 ± 1 kg/m3

**Q.** And the mass density ([2]; 313.15 K, 300 kPa)?
**A.** 880 ± 1 kg/m3

**Q.** What about the mass density ([2]; 313.15 K, 2500 kPa) of the same molecule?
**A.** 880 ± 1 kg/m3

**Q.** What about the mass density ([2]; 313.15 K, 5100 kPa) of the same molecule?
**A.** 882 ± 1 kg/m3

**Q.** What about the mass density ([2]; 313.15 K, 10000 kPa) of the same molecule?
**A.** 884 ± 1 kg/m3

**Q.** And the mass density ([2]; 313.15 K, 15100 kPa)?
**A.** 887 ± 1 kg/m3

**Q.** And the mass density ([2]; 313.15 K, 20100 kPa)?
**A.** 889 ± 1 kg/m3

**Q.** And the mass density ([2]; 313.15 K, 25400 kPa)?
**A.** 892 ± 1 kg/m3

**Q.** What about the mass density ([2]; 313.15 K, 30400 kPa) of the same molecule?
**A.** 894 ± 1 kg/m3

**Q.** And the mass density ([2]; 323.15 K, 200 kPa)?
**A.** 870 ± 1 kg/m3

**Q.** What about the mass density ([2]; 323.15 K, 2500 kPa) of the same molecule?
**A.** 870 ± 1 kg/m3

**Q.** And the mass density ([2]; 323.15 K, 5100 kPa)?
**A.** 872 ± 1 kg/m3

**Q.** What about the mass density ([2]; 323.15 K, 10000 kPa) of the same molecule?
**A.** 875 ± 1 kg/m3

**Q.** And the mass density ([2]; 323.15 K, 15000 kPa)?
**A.** 878 ± 1 kg/m3

**Q.** What about the mass density ([2]; 323.15 K, 19900 kPa) of the same molecule?
**A.** 880 ± 1 kg/m3

**Q.** And the mass density ([2]; 323.15 K, 25100 kPa)?
**A.** 882 ± 1 kg/m3

**Q.** And the mass density ([2]; 323.15 K, 29700 kPa)?
**A.** 885 ± 1 kg/m3

**Q.** What about the mass density ([2]; 333.15 K, 200 kPa) of the same molecule?
**A.** 860 ± 1 kg/m3

**Q.** And the mass density ([2]; 333.15 K, 2500 kPa)?
**A.** 861 ± 1 kg/m3

**Q.** And the mass density ([2]; 333.15 K, 5000 kPa)?
**A.** 863 ± 1 kg/m3

**Q.** And the mass density ([2]; 333.15 K, 10000 kPa)?
**A.** 866 ± 1 kg/m3

**Q.** What about the mass density ([2]; 333.15 K, 15000 kPa) of the same molecule?
**A.** 868 ± 1 kg/m3

**Q.** And the mass density ([2]; 333.15 K, 20000 kPa)?
**A.** 871 ± 1 kg/m3

**Q.** And the mass density ([2]; 333.15 K, 25000 kPa)?
**A.** 874 ± 1 kg/m3

**Q.** What about the mass density ([2]; 333.15 K, 30000 kPa) of the same molecule?
**A.** 876 ± 1 kg/m3

**Q.** And the mass density ([2]; 343.15 K, 200 kPa)?
**A.** 850 ± 1 kg/m3

**Q.** And the mass density ([2]; 343.15 K, 2500 kPa)?
**A.** 852 ± 1 kg/m3

**Q.** And the mass density ([2]; 343.15 K, 5100 kPa)?
**A.** 853 ± 1 kg/m3

**Q.** And the mass density ([2]; 343.15 K, 10000 kPa)?
**A.** 856 ± 1 kg/m3

**Q.** And the mass density ([2]; 343.15 K, 15000 kPa)?
**A.** 860 ± 1 kg/m3

**Q.** What about the mass density ([2]; 343.15 K, 20000 kPa) of the same molecule?
**A.** 862 ± 1 kg/m3

**Q.** What about the mass density ([2]; 343.15 K, 25100 kPa) of the same molecule?
**A.** 865 ± 1 kg/m3

**Q.** And the mass density ([2]; 343.15 K, 30100 kPa)?
**A.** 867 ± 1 kg/m3

**Q.** And the mass density ([2]; 353.15 K, 200 kPa)?
**A.** 840 ± 1 kg/m3

**Q.** And the mass density ([2]; 353.15 K, 2500 kPa)?
**A.** 842 ± 1 kg/m3

**Q.** And the mass density ([2]; 353.15 K, 5000 kPa)?
**A.** 844 ± 1 kg/m3

**Q.** What about the mass density ([2]; 353.15 K, 10200 kPa) of the same molecule?
**A.** 847 ± 1 kg/m3

**Q.** What about the mass density ([2]; 353.15 K, 15100 kPa) of the same molecule?
**A.** 850 ± 1 kg/m3

**Q.** What about the mass density ([2]; 353.15 K, 20000 kPa) of the same molecule?
**A.** 853 ± 1 kg/m3

**Q.** And the mass density ([2]; 353.15 K, 25100 kPa)?
**A.** 856 ± 1 kg/m3

**Q.** What about the mass density ([2]; 353.15 K, 30100 kPa) of the same molecule?
**A.** 859 ± 1 kg/m3

**Q.** What about the mass density ([2]; 363.15 K, 200 kPa) of the same molecule?
**A.** 830 ± 1 kg/m3

**Q.** What about the mass density ([2]; 363.15 K, 2600 kPa) of the same molecule?
**A.** 832 ± 1 kg/m3

**Q.** What about the mass density ([2]; 363.15 K, 5100 kPa) of the same molecule?
**A.** 834 ± 1 kg/m3

**Q.** And the mass density ([2]; 363.15 K, 10100 kPa)?
**A.** 838 ± 1 kg/m3

**Q.** What about the mass density ([2]; 363.15 K, 15000 kPa) of the same molecule?
**A.** 840 ± 1 kg/m3

**Q.** What about the mass density ([2]; 363.15 K, 20100 kPa) of the same molecule?
**A.** 844 ± 1 kg/m3

**Q.** What about the mass density ([2]; 363.15 K, 25600 kPa) of the same molecule?
**A.** 847 ± 1 kg/m3

**Q.** What about the mass density ([2]; 363.15 K, 30000 kPa) of the same molecule?
**A.** 850 ± 1 kg/m3

**Q.** What about the mass density ([2]; 373.15 K, 200 kPa) of the same molecule?
**A.** 820 ± 1 kg/m3

**Q.** What about the mass density ([2]; 373.15 K, 2500 kPa) of the same molecule?
**A.** 822 ± 1 kg/m3

**Q.** And the mass density ([2]; 373.15 K, 5100 kPa)?
**A.** 825 ± 1 kg/m3

**Q.** And the mass density ([2]; 373.15 K, 10100 kPa)?
**A.** 828 ± 1 kg/m3

**Q.** And the mass density ([2]; 373.15 K, 15000 kPa)?
**A.** 831 ± 1 kg/m3

**Q.** And the mass density ([2]; 373.15 K, 20100 kPa)?
**A.** 835 ± 1 kg/m3

**Q.** What about the mass density ([2]; 373.15 K, 25100 kPa) of the same molecule?
**A.** 838 ± 1 kg/m3

**Q.** And the mass density ([2]; 373.15 K, 30200 kPa)?
**A.** 841 ± 1 kg/m3

**Q.** And the mass density ([2]; 383.15 K, 200 kPa)?
**A.** 810 ± 1 kg/m3

**Q.** What about the mass density ([2]; 383.15 K, 2500 kPa) of the same molecule?
**A.** 813 ± 1 kg/m3

**Q.** And the mass density ([2]; 383.15 K, 5200 kPa)?
**A.** 815 ± 1 kg/m3

**Q.** And the mass density ([2]; 383.15 K, 10000 kPa)?
**A.** 818 ± 1 kg/m3

**Q.** What about the mass density ([2]; 383.15 K, 15200 kPa) of the same molecule?
**A.** 822 ± 1 kg/m3

**Q.** And the mass density ([2]; 383.15 K, 20500 kPa)?
**A.** 826 ± 1 kg/m3

**Q.** What about the mass density ([2]; 383.15 K, 25000 kPa) of the same molecule?
**A.** 829 ± 1 kg/m3

**Q.** What about the mass density ([2]; 383.15 K, 30300 kPa) of the same molecule?
**A.** 832 ± 1 kg/m3
